Assay: UV absorption (λmax and specific absorbance E1^1)
Type: physicochemical
Details: for λmax.: UV absorption maximum, no unit or solvent printed; for E1^1: specific absorbance at λmax, solvent not given

Row | λmax. | E1^1 | SMILES
1 | 336 | 800 | CCOC(=O)/C(=C/C=C(c1ccccc1)c1ccccc1)C(=O)OCCOC(=O)/C(=C\C=C(c1ccccc1)c1ccccc1)C(=O)OCC [Example 2]
2 | 354 | 850 | N#C/C(=C/C=C(c1ccccc1)c1ccccc1)C(=O)OCCOC(=O)/C(C#N)=C\C=C(c1ccccc1)c1ccccc1 [Example 3]
